Literature values as cited in patent US20210205417A1, “PH 7 INJECTABLE SOLUTION COMPRISING AT LEAST ONE BASAL INSULIN OF WHICH THE PI IS FROM 5.8 TO 8.5 AND A CO-POLYAMINO ACID BEARING CARBOXYLATE CHARGES AND HYDROPHOBIC RADICALS AND A LIMITED AMOUNT OF M-CRESOL” (ADOCIA, priority 2018, published 2021).

Conditions: patients

insulin glargine
period over which the hypoglycemic effect is almost constant: 24 h
